Measured values taken from US10369165B2, “Composition containing active components of Dracocephalum moldavica L. against myocardial ischemia-reperfusion injury” (Nanjing Ruiying Runze Biopharmaceutical Technology Co., Inc., priority 2014, dated 2019).

Experiments:
[1] = system: rat H9c2 cardiac myocytes; assay: MTT cell activity of H9c2 cardiac myocytes after hypoxia/reoxygenation injury; format: cell-based; details: total 30 μM, 12 h preincubation, hypoxia 6 h, reoxygenation 5 h
Experimental: Rat cardiac myocytes H9c2 in logarithmic growth phase are taken. After digestion, the cells are resuspended with DMEM medium (containing 10% FBS), then inoculated into 96-well plate and normally cultured in incubator of 37° C. and 5% CO2. After entering logarithmic growth phase, the cells are divided into following groups for experiment: (1) normal culture group (Control group): during the experiment, cells are normally cultured in incubator of 37° C. and 5% CO2; (2) […] Model group (Model group): normal culture fluid for the experimental cells in logarithmic growth phase is replaced with glucose-free Earle's solution which has been previously saturated with mixture of 95% N2+5% CO2 for 1 hour. Then the cells are cultured in hypoxic condition for 6 h at 37° C. in constant-temperature incubator introduced with the mixture of 95% N2+5% CO2. Then the hypoxia treated cells are subjected to reoxygenation in normal condition for 5 h with the high glucose medium DMEM (containing 10% FBS) which has been previously saturated with mixture of 95% air+5% CO2. (3) pre-treated compatible group of luteilon, kaempferol and luteolin-7-O-glucoside: H9c2 cells are preincubated for 12 h with luteilon, kaempferol and luteolin-7-O-glucoside combined in different ratios. Then, the normal culture solution is replaced with glucose-free Earle's solution which has been previously saturated with mixture of 95% N2+5% CO2 for 1 hour. After anoxic treatment for 6 h with N2 anoxic tank, the cells are subjected to reoxygenation for 5 h in normal culture condition with normal culture solution; meanwhile the cells are incubated with the administration of each compatible drug. After treatment, 20 μg/ml MTT is added, and each experimental group is cultured for 4 h, then MTT is solved in 150 μl DMSO. OD of each well is read by ELISA meter at wavelength of 490 nm, and activity of cells is determined.

[2] = target: PTEN (Homo sapiens, UniProt P60484); details: previous studies; cited from earlier work
[3] = system: rat primary cardiac myocytes; assay: MTT cell activity of rat primary cardiac myocytes injured by hypoxia/reoxygenation; format: cell-based; details: 30 μM, 24 h pre-treatment, hypoxia 6 h, reoxygenation 5 h
Experimental: Wistar ventricular myocytes of neonatal rat aged 2 d are isolated under asepsis condition, then the myocytes are digested with mixture of digestive enzymes (0.06% trypsin and 0.1% type II collagenase mixed in equal amount) for multiple times in a short time. Cardiac myocytes are purified using differential adhesion method. […] The cells are cultured for 24 hours, then the supernatant is discarded, and the cells are washed with PBS three times. […] After pre-treatment for 24 h, all of the hypoxia/reoxygenation injury groups are placed in glucose-free Earle's solution which has been previously saturated with mixture of 95% N2+5% CO2 for 1 hour. The cells are cultured in hypoxic condition for 6 h at 37° C. in constant-temperature incubator introduced with the mixture of 95% N2+5% CO2. Then the hypoxia treated cells are subjected to reoxygenation in normal condition for 5 h with the DMEM high glucose medium (containing 10% FBS) which has been previously saturated with mixture of 95% air+5% CO2. At the same time, the cells are incubated with the administration of compatible compositions. After treating the experimental groups of cells, 20 μg/ml MTT is added, and each experimental group is cultured for 4 h, then MTT is solved in 150 μl DMSO. OD of each well is read by ELISA meter at wavelength of 490 nm, and activity of cells is determined.

[4] = target: T1, SHP-2 (Homo sapiens, UniProt Q06124); details: previous studies; cited from earlier work
T1 sequence (Q06124 1-593): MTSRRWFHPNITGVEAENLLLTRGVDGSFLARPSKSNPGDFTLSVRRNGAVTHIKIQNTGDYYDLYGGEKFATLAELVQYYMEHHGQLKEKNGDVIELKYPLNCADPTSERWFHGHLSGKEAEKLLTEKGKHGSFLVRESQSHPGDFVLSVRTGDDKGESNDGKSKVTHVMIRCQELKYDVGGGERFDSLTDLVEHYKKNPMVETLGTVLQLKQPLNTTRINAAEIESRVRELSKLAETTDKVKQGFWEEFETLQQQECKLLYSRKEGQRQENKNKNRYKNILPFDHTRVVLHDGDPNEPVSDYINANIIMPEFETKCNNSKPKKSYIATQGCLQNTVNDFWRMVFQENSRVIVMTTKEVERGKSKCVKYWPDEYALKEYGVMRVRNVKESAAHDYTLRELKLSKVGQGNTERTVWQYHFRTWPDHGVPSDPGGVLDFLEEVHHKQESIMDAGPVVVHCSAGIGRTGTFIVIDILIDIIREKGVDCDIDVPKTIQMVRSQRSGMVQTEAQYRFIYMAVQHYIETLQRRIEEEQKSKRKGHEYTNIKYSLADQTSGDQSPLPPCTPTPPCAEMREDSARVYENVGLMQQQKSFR

[5] = system: rat primary cardiac myocytes; assay: LDH leak of rat primary cardiac myocytes injured by nitrogen hypoxia/reoxygenation; format: cell-based; details: 30 μM; culture medium supernatant; hypoxia 6 h, reoxygenation 5 h
Experimental: Experiment Method: Wistar ventricular myocytes of neonatal rat aged 2 d are isolated under asepsis condition, then the myocytes are digested with mixture of digestive enzymes (0.06% trypsin and 0.1% type II collagenase mixed in equal amount) for multiple times in a short time. Cardiac myocytes are purified using differential adhesion method. […] The cells are cultured for 24 hours, then the supernatant is discarded, and the cells are washed with PBS three times. All of the cells are classified into contrast group, hypoxia/reoxygenation injury group, hypoxia/reoxygenation model+compatible composition group. After pre-treatment for 24 h, all of the hypoxia/reoxygenation injury groups are placed in glucose-free Earle's solution which has been previously saturated with mixture of 95% N2+5% CO2 for 1 hour. The cells are cultured in hypoxic condition for 6 h at 37° C. in constant-temperature incubator introduced with mixture of 95% N2+[…]. Then the hypoxia treated cells are subjected to reoxygenation in normal condition for 5 h with the high glucose medium DMEM (containing 10% FBS) which has been previously saturated with mixture of 95% air+[…]. At the same time, the cells are incubated with compatible compositions. After treating the experimental groups of cells, the supernatant is collected; the content of LDH leak in supernatant of culture medium is measured according to the steps of LDH kit.

[6] = system: myocardial ischemia-reperfusion injury (MIRI); details: previous studies; cited from earlier work
[7] = system: rat primary cardiac myocytes; assay: ATP, ADP, AMP content (HPLC) of rat primary cardiac myocytes injured by nitrogen hypoxia/reoxygenation; format: cell-based; details: 30 μM, cell lysate supernatant
Experimental: Experiment method: Wistar ventricular myocytes of neonatal rat aged 2 d are isolated under asepsis condition, then the myocytes are digested with mixture of digestive enzymes (0.06% trypsin and 0.1% type II collagenase mixed in equal amount) for multiple times in a short time. Cardiac myocytes are purified using differential adhesion method. […] The cells are cultured for 24 hours, then the supernatant is discarded, and the cells are washed with PBS three times. All of the cells are classified into contrast group, hypoxia/reoxygenation injury group, hypoxia/reoxygenation model+compatible composition group. After pre-treatment for 24 h, all of the hypoxia/reoxygenation injury groups are placed in glucose-free Earle's solution which has been previously saturated with mixture of 95% N2+5% CO2 for 1 hour. The cells are cultured in hypoxic condition for 6 h at 37° C. in constant-temperature incubator introduced with the mixture of 95% N2+5% CO2. Then the hypoxia treated cells are subjected to reoxygenation in normal condition for 5 h with the high glucose medium DMEM (containing 10% FBS) which has been previously saturated with mixture of 95% air+5% CO2. At the same time, the cells are incubated with compatible compositions. After treating the experimental groups of cells, the culture solution is discarded. The cells are washed once with pre-cooled PBS. 500 μl pre-cooled 50% perchlorate solution is added in each well. Pyrolysis of cells take place on ice for 5 min. The cells are scrapped, 600 μl of 2.5 mol/L Na2CO3 solution is added, and pH is adjusted to 6.5. Pyrolysis mixture is collected in centrifuge tube and centrifuged in 4° C. Content of supernatant is determined by HPLC. […] The content is determined with HPLC method. The equipment is LC-2010C quaternionic pump high performance liquid chromatogram, analytical column is Diamonsil C18 column (250 mm×4.6 mm, 5 μm), detection wavelength: 260 nm, mobile phase is 0.05M phosphate buffer (pH 6.5), detector is UV-vis detector. Flow-rate of column is 0.8 ml/min, sample size is 20 μl, and analytical time is 12 min, the data is processed using LCsolution chromatography workstation (Japan, […]).

[8] = system: rat primary cardiac myocytes; assay: pH of culture supernatant of rat primary cardiac myocytes injured by nitrogen hypoxia/reoxygenation; format: cell-based; details: 30 μM; culture medium supernatant; hypoxia 6 h, reoxygenation 5 h
Experimental: Experiment method: Wistar ventricular myocytes of neonatal rat aged 2 d are isolated under asepsis condition, then the myocytes are digested with mixture of digestive enzymes (0.06% trypsin and 0.1% type II collagenase mixed in equal amount) for multiple times in a short time. Cardiac myocytes are purified using differential adhesion method. […] The cells are cultured for 24 hours, then the supernatant is discarded, and the cells are washed with PBS three times. All of the cells are classified into contrast group, hypoxia/reoxygenation injury group, hypoxia/reoxygenation model+compatible composition group. After pre-treatment for 24 h, all of the hypoxia/reoxygenation injury groups are placed in glucose-free Earle's solution which has been previously saturated with mixture of 95% N2+5% CO2 for 1 hour. The cells are cultured in hypoxic condition for 6 h at 37° C. in constant-temperature incubator introduced with the mixture of 95% N2+5% CO^2. Then the hypoxia treated cells are subjected to reoxygenation in normal condition for 5 h with the high glucose medium DMEM (containing 10% FBS) which has been previously saturated with mixture of 95% air+5% CO2. At the same time, the cells are incubated with compatible compositions. After treating the experimental groups of cells, the supernatant is collected; the pH of supernatant of culture medium is measured directly with pH meter.

PTEN, sequence (P60484 whole entry, species assumed): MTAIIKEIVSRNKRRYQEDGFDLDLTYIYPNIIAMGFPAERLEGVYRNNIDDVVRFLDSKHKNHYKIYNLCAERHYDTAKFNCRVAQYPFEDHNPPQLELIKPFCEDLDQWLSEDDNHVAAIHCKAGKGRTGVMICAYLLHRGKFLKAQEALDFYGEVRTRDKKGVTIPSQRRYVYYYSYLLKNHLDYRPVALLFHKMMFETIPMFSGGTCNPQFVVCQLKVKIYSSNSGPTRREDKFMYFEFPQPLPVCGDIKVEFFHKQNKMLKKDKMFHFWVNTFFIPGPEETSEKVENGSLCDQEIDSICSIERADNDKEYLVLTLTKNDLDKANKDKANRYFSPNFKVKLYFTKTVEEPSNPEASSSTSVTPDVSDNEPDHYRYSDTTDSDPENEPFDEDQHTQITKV

Compound	protection rate of cell activity (%) [1]	activity of PTEN [2]	protection rate of cell activity (%) [3]	activity of SHP-2 [4]	Leak rate (%) of LDH [5]	heart rate [6]	mitochondrial Ca2+ [6]	ADP [7]	AMP [7]	ATP [7]	pH of supernatant [8]	function of myocardial contraction [6]	mitochondrial membrane potential [6]	level of cytoplasmic Ca2+ [6]	oxygen free radical damage [6]
O=c1c(O)c(-c2ccc(O)cc2)oc2cc(O)cc(O)c12 [Kaempferol, kaempferol]	76.97 ± 6.67%	inhibit	69.22%	inhibit	111.25%	maintain	reduce	17.15 µg/mL	7.15 µg/mL	84.72 µg/mL	7.10				
O=c1cc(-c2ccc(O)c(O)c2)oc2cc(O)cc(O)c12 [Luteilon, luteolin]	81.93 ± 7.18%		68.08%		122.37%			15.38 µg/mL	7.59 µg/mL	102.88 µg/mL	7.11	improve	increase		
O=c1cc(-c2ccc(O)c(O)c2)oc2cc(O[C@@H]3O[C@H](CO)[C@@H](O)[C@H](O)[C@H]3O)cc(O)c12 [Luteolin-7-0-glucoside, luteolin-7-O-glucoside]	78.57 ± 4.54%		71.17%		115.18%			17.12 µg/mL	8.97 µg/mL	69.45 µg/mL	7.08			reduce	prevent
